Results on 13 compounds are retold here after patent publication US20250163078A1, “IMIDAZOPYRIDAZINE DERIVATIVE, AND PREPARATION METHOD THEREFOR, PHARMACEUTICAL COMPOSITION THEREOF AND USE THEREOF” (SHANGHAI SIMR BIOTECHNOLOGY CO., LTD., priority 2022, published 2025).

The term Ki denotes the equilibrium dissociation constant of an inhibitor or competing ligand from its target.

Where two headings read alike, the source gives them in different places.

For test [1], the target named is T1, α2-GABAA receptor (Homo sapiens, UniProt P18507+P47869).
T1 construct: expressed in transfected cells
Kind of test: Whole-cell patch-clamp electrophysiological test of positive allosteric modulation, α2-GABAAR-HEK293 cells. In kind it is cell-based. The settings on record: read-out: Positive allosteric modulation activity on α2-GABAAR. From the text:
(§1) An α subunit, a β subunit, and a γ subunit are essential for the formation of a complete functional GABAA receptor. […] The α1-GABAAR-HEK293 cell model simultaneously expressed the α1 subunit (protein sequence available in GenBank with an accession No.: NM_000806.5), the β3 subunit (protein sequence available in GenBank with an accession No.: NM_000814.5), and the γ2 subunit (protein sequence available in GenBank with an accession No.: NM_000816.3). The α2-GABAAR-HEK293 cell model simultaneously expressed the α2 subunit (protein sequence available in GenBank with an accession No.: NM_000807.4), the β3 subunit (protein sequence available in GenBank with an accession No.: NM_000814.5), and the γ2 subunit (protein sequence available in GenBank with an accession No.: NM_000816.3).
(§2) The above cell lines were subcultured. The α2-GABAAR-HEK293 cells were expanded for assay of the benzodiazepine (BZD) site affinity of compounds for GABAA receptors.
(§3) The positive regulation activity of the test drugs on the α1-GABAA receptor and the α2-GABAA receptor was detected by the electrophysiological method. The specific method was as follows:
(§4) Compound concentration setting: the final concentration of the compounds used for screening was 100 nM. […] The components of the extracellular solution (ECS) for electrophysiology were as follows: 150 mM NaCl, 5 mM KCl, 2.5 mM CaCl2, 1 mM MgCl2, 10 mM HEPES, and 10 mM glucose (pH 7.4); the formulation of the intracellular solution (ICS) of electrodes for electrophysiology was as follows: 140 mM CsCl, 11 mM EGTA, 10 mM HEPES, 2 mM CaCl2, 1 mM MgCl2, 4 mM MgATP, and 2 mM TEA (pH 7.3). GABA (γ-aminobutyric acid) powder was prepared into a mother liquor with pure water, which was then diluted in ECS; the compounds were first prepared into 4 mM mother liquors with dimethyl sulfoxide and then gradually diluted to corresponding concentrations in GABA-ECS. The solutions were all prepared freshly prior to the electrophysiological test.
(§5) Electrophysiological signal acquisition was performed using an EPC 10 amplifier and PatchMaster software (HEKA) or an Axon700B amplifier and Clampex software (AXON).
(§6) The recording electrode was made by pulling borosilicate glass, with an electrode resistance of 4-6 MΩ. Extracellular administration was performed using the ALA-VC-8PG™ system. A single, independently growing cell was selected. After the glass electrode formed a good seal with the cell, the membrane was ruptured to form the whole-cell configuration. The cell membrane potential was clamped at −60 mV and recorded in Gap-free mode. During the test, the extracellular solution was first applied extracellularly for about 20 s. After the baseline (Iprebaseline) stabilized, the extracellular solution was switched to GABA-ECS. At this time, the current caused by GABA (Igaba) could be detected. After about 10-20 s, when the current stabilized, the extracellular solution was switched to a mixed solution of the compound and GABA-ECS. At this point, the current caused by both the compound and GABA (Itreatment) could be detected. Finally, the solution was switched to the extracellular solution, and the test was terminated after recording for 20-40 s.
(§7) The current values at each stage were calculated based on the average value of the current after stabilization under the corresponding conditions. We defined the control current as Igaba−Iprebaseline, and the current after compound treatment as Itreatment−Iprebaseline. The allosteric modulation activity of the compounds was expressed as a percentage, calculated by the following formula: functional activity=[(Itreatment−Igaba)/(Igaba−Iprebaseline)]×100%.
On the technique in general: In patch-clamp work, channel activity is measured electrically.

The next test addresses T2, α1-GABAA receptor (Homo sapiens, UniProt P14867+P18507).
T2 construct: expressed in transfected cells
Kind of test: Whole-cell patch-clamp electrophysiological test of positive allosteric modulation, α1-GABAAR-HEK293 cells. Format: cell-based. The conditions noted are these: read-out: Positive allosteric modulation activity on α1-GABAAR.
Description: as §1, §2, §3, §4, §5, §6, §7

For test [2], the target named is T1, α2-GABAA receptor. Kind of test: Radioligand (3H-flunitrazepam) competitive binding assay at the BZD site.
Description: as §1, §2
The affinity of the compounds for the α2-GABAA receptor was determined by competing with ^3H-flunitrazepam (isotope ^3H-labelled flunitrazepam) for binding to the BZD site on the membrane proteins of HEK293 cells stably expressing the human α2-GABAA receptor.
Membrane preparation: The cells were suspended in 50 mM Tris-HCl buffer (pH=7.4), homogenized 10 times (20 s for each time) with a homogenizer on ice, and then centrifuged at 4° C. at 1000 g for 10 min. The supernatant was taken. The above steps were repeated. The supernatant was centrifuged (33800 g; Thermo, rotor: A27-8×50) at 4° C. for 60 min. The pellet was resuspended in Tris buffer (50 mM Tris-HCl, 10 mM MgCl2, 0.5 mM EDTA, and 10% glycerol). The protein content was determined (BCA (bicinchoninic acid) protein quantification assay based on the copper ion reduction method, with a BCA kit purchased from Pierce (Annoron (Beijing) Biotechnology Co., Ltd.)), and 1 mL aliquots were prepared and stored at −80° C.
Radioligand competitive binding assay: This assay was performed in a 200 μL system (96-well plate) containing 100 μL of cell membranes. The concentration of ^3H-flunitrazepam was 1 nM, and the concentrations of the test compounds were in the range of […]. Flumazenil was used as a control. To each low control (LC) well was added 1 μL of 2 mM flumazenil (the final concentration of 10 μM), and to each high control (HC) well was added 1 μL of dimethyl sulfoxide. The final concentration of the target membrane protein was […]. All sample stock solutions of test compounds were 10 mM solutions in dimethyl sulfoxide. All the samples were diluted to a concentration of 0.2 mM with dimethyl sulfoxide, and then subjected to a 4-fold serial dilution to give a total of 8 working concentration gradients. The 96-well plate was sealed with a plate sealing membrane and then incubated on a shaker at room temperature for 1 h. Meanwhile, a GF/C filter plate was soaked in a plate soaking buffer (0.3% PEI (polyethyleneimine, purchased from: Sigma-Aldrich, model: P314), stored at 4° C.) for at least 0.5 h. After the binding incubation was completed, the cells were harvested onto the GF/C filter plate using a cell harvester and washed 4 times with a washing buffer (50 mM Tris-HCl, pH 7.4, stored at 4° C.). After drying in an oven at 50° C. for 1 h, the dried GF/C filter plate was bottom-sealed. The residual radioactivity on the filter membrane was detected by liquid scintillation counting. Scintillation fluid was added at 50 µL/well, and then the plate was sealed. Readings were taken using Microbeta^2 (microplate counter, purchased from: PerkinElmer, model: CNLL0153). The inhibitory activity of the test samples on the binding of ^3H-flunitrazepam to the GABAA receptor membrane protein was calculated.

Where [3] appears, read: compound 100 nM, GABA 0.10-0.11 M [sic] (about EC70.8), normalised to positive compound CVL-865 (=100%).
Where [4] appears, read: compound 100 nM, GABA about EC2-4, normalised to positive compound CVL-865 (=100%), negative value = reverse allosteric modulation.
Where [5] appears, read: membranes of HEK293 cells stably expressing human α2-GABAA receptor (α2β3γ2), 1 nM 3H-flunitrazepam, Ki calculated from IC50, read-out: α2 Ki.

As to `CCn1cnc2c(-c3ccc(F)c(-c4ccn5c(C6CC(OC)C6)nnc5c4OC)c3)cnnc21` (centres unmarked) [Example 6, 7-Ethyl-4-(4-fluoro-3-(8-methoxy-3-(3-methoxycyclobutyl)-[1,2,4]triazolo[4,3-a]pyridin-7-yl)phenyl)-7H-imidazo[4,5-c]pyridazine], the activation at 0.1 µM is 118% on α2-GABAA receptor [1] (setting [3]) and -16% on α1-GABAA receptor (setting [4]).

Regarding `CCn1cnc2c(-c3ccc(F)c(-c4c(OC)ccc5nccn45)c3)cnnc21` [Example 49, 7-Ethyl-4-(4-fluoro-3-(6-methoxyimidazo[1,2-a]pyridin-5-yl)phenyl)-7H-imidazo[4,5-c]pyridazine], the activation at 0.1 µM was 82% at α2-GABAA receptor [1] (setting [3]) and 44% on α1-GABAA receptor (setting [4]). For the same compound, the Ki on α2-GABAA receptor [2] (setting [5]) was 16.5 nM.

As for `CCn1cnc2c(-c3ccc(F)c(-c4cn5ccnc5cc4OC)c3)cnnc21` [Example 52, 7-Ethyl-4-(4-fluoro-3-(7-methoxyimidazo[1,2-a]pyridin-6-yl)phenyl)-7H-imidazo[4,5-c]pyridazine], the activation at 0.1 µM on α2-GABAA receptor [1] (setting [3]) was 99%; at α1-GABAA receptor (setting [4]), 19%. Further, the Ki at α2-GABAA receptor [2] (setting [5]) is 8.07 nM.

As for `CCn1cnc2c(-c3ccc(F)c(-c4ccn5c(C6CCOCC6)nnc5c4OC)c3)cnnc21` [Example 34, 7-Ethyl-4-(4-fluoro-3-(8-methoxy-3-(tetrahydro-2H-pyran-4-yl)-[1,2,4]triazolo[4,3-a]pyridin-7-yl)phenyl)-7H-imidazo[4,5-c]pyridazine], the values for the activation at 0.1 µM on α2-GABAA receptor [1] (setting [3]) and at α1-GABAA receptor (setting [4]) were 95% and 25%, respectively. For the same compound, the Ki on α2-GABAA receptor [2] (setting [5]) was 8.13 nM.

As to `CCn1cnc2c(-c3ccc(F)c(-c4ccn5c(C6CCC6)nnc5c4OC)c3)cnnc21` [Example 17, 4-(3-(3-Cyclobutyl-8-methoxy-[1,2,4]triazolo[4,3-a]pyridin-7-yl)-4-fluorophenyl)-7-ethyl-7H-imidazo[4,5-c]pyridazine], the activation at 0.1 µM at α2-GABAA receptor [1] (setting [3]) is 100%; at α1-GABAA receptor (setting [4]) it was -49%. For the same compound, on α2-GABAA receptor [2] (setting [5]), the Ki is 2.85 nM.

For the compound `CCn1cnc2c(-c3ccc(F)c(-c4ccn5c(C)nnc5c4OC)c3)cnnc21` [Example 32, 7-Ethyl-4-(4-fluoro-3-(8-methoxy-3-methyl-[1,2,4]triazolo[4,3-a]pyridin-7-yl)phenyl)-7H-imidazo[4,5-c]pyridazine], the activation at 0.1 µM is 102% on α2-GABAA receptor [1] (setting [3]) and -39% on α1-GABAA receptor (setting [4]). For the same compound, the Ki at α2-GABAA receptor [2] (setting [5]) is 2.89 nM.

Take `CCn1cnc2c(-c3ccc(F)c(-c4ccn5c(C6CCOC(C)(C)C6)nnc5c4OC)c3)cnnc21` (centres unmarked) [Example 16, 4-(3-(3-(2,2-Dimethyltetrahydro-2H-pyran-4-yl)-8-methoxy-[1,2,4]triazolo[4,3-a]pyridin-7-yl)-4-fluorophenyl)-7-ethyl-7H-imidazo[4,5-c]pyridazine]: the activation at 0.1 µM was 95% at α2-GABAA receptor [1] (setting [3]) and -56% on α1-GABAA receptor (setting [4]). Further, the Ki on α2-GABAA receptor [2] (setting [5]) is 8.17 nM.

As to `CCn1cnc2c(-c3ccc(F)c(-c4ccn5c(C6COC6)nnc5c4OC)c3)cnnc21` [Example 28, 7-Ethyl-4-(4-fluoro-3-(8-methoxy-3-(oxetan-3-yl)-[1,2,4]triazolo[4,3-a]pyridin-7-yl)phenyl)-7H-imidazo[4,5-c]pyridazine], the activation at 0.1 µM on α2-GABAA receptor [1] (setting [3]) amounted to 126%; on α1-GABAA receptor (setting [4]), 19%. Further, the Ki on α2-GABAA receptor [2] (setting [5]) was 5.12 nM.

As to `COc1c(-c2cc(-c3cnnc4c3ncn4C(C)C)ccc2F)ccn2c(C3CC3)nnc12` [Example 27, 4-(3-(3-Cyclopropyl-8-methoxy-[1,2,4]triazolo[4,3-a]pyridin-7-yl)-4-fluorophenyl)-7-isopropyl-7H-imidazo[4,5-c]pyridazine], the activation at 0.1 µM worked out at 110% on α2-GABAA receptor [1] (setting [3]) and 4% at α1-GABAA receptor (setting [4]). Moreover, at α2-GABAA receptor [2] (setting [5]), the inhibition constant Ki was 6.05 nM.

For the compound `CCn1cnc2c(-c3ccc(F)c(-c4cn5cc(C(F)F)nc5cc4OC)c3)cnnc21` [Example 41, 4-(3-(2-(Difluoromethyl)-7-methoxyimidazo[1,2-a]pyridin-6-yl)-4-fluorophenyl)-7-ethyl-7H-imidazo[4,5-c]pyridazine], the figures for the activation at 0.1 µM at α2-GABAA receptor [1] (setting [3]) and on α1-GABAA receptor (setting [4]) were 178% and 59%, respectively. Moreover, the Ki at α2-GABAA receptor [2] (setting [5]) is 0.11 nM.

On to `CCn1cnc2c(-c3ccc(F)c(-c4ccn5c(C)nnc5c4COC)c3)cnnc21` [Example 58, 7-Ethyl-4-(4-fluoro-3-(8-(methoxymethyl)-3-methyl-[1,2,4]triazolo[4,3-a]pyridin-7-yl)phenyl)-7H-imidazo[4,5-c]pyridazine], for which the activation at 0.1 µM stood at 123% at α2-GABAA receptor [1] (setting [3]) and 40% on α1-GABAA receptor (setting [4]). For the same compound, the Ki on α2-GABAA receptor [2] (setting [5]) was 11.4 nM.

`CCn1cnc2c(-c3ccc(F)c(-c4cn5cc(C6(F)CC6)nc5cc4OC)c3)cnnc21` [Example 12, 7-Ethyl-4-(4-fluoro-3-(2-(1-fluorocyclopropyl)-7-methoxyimidazo[1,2-a]pyridin-6-yl)phenyl)-7H-imidazo[4,5-c]pyridazine]: the activation at 0.1 µM was determined as 104% at α2-GABAA receptor [1] (setting [3]) and 32% at α1-GABAA receptor (setting [4]). Further, at α2-GABAA receptor [2] (setting [5]), the Ki is 5.79 nM.

Consider `CCn1cnc2c(-c3ccc(F)c(-c4cn5cc(C)nc5cc4OC)c3)cnnc21` [Example 50, 7-Ethyl-4-(4-fluoro-3-(7-methoxy-2-methylimidazo[1,2-a]pyridin-6-yl)phenyl)-7H-imidazo[4,5-c]pyridazine], for which the activation at 0.1 µM at α2-GABAA receptor [1] was 103%; on α1-GABAA receptor, 29%. The same compound had a Ki at α2-GABAA receptor [2] of 9.89 nM.
